These results are taken from patent publication US20240350443A1, “COMPOSITION, FORMULATION, PREPARATION METHOD AND USE FOR GLUTATHIONE PRECURSOR” (priority 2021, published 2024).

Marks after values point to notes of the source that are not given here.

Common to all, as to format: in vivo, Kunming mice
Test [1] relates to alcoholic liver damage. Briefly: Liver protection function experiment: MDA, reduced GSH and TG in liver homogenates. An excerpt: In the experiment, the auxiliary protection effect of the composition of the present disclosure on alcoholic liver damage was researched by detecting three indicators of liver malondialdehyde (MDA) content, reduced glutathione (GSH) and triglyceride (TG) and histopathologic examination (wherein the lower the MDA and TG contents were, the higher the GSH content was, the better the liver protection effect was). If the three indicators of the liver MDA, the reduced GSH and the TG were positive, or any two of the three indicators of the liver MDA, the reduced GSH and the TG were positive and the histopathological examination result was positive, the composition could be determined to have the auxiliary protection effect on alcoholic liver damage.
Test animals were as follows: male SPF-grade Kunming mice aged 5 to 6 weeks, with body weights of 18-22 g, available from Hubei Provincial Laboratory Animal Public Service Center, Hubei, China [certification No.: SCXK (E) 2020-0018].
The experimental method was as follows: 117 mice were randomly divided into 9 groups, namely a blank control group, a model control group and experimental groups 1-7 (the formula of the test samples was referred to the formula of the experimental groups 1-7), with 13 mice in each group.
Distilled water was given to the blank control group and the model control group, corresponding test substances (the dose of acetylcysteine or cysteine agent in each test substance was 500 mg/kg BW) were given to each experimental group according to the formula, and the intragastric capacity was 20 mL/kg BW. On day 30 of the experiment, the mice of the model control group and each experimental group were intragastrically administered with 14 mL/kg BW of 50% ethanol once, and distilled water with equal volume was given to the blank control group, and then the mice were fasted for 16 hours. The mice were sacrificed by cervical dislocation after weighing.
0.5 g of liver was taken and added with normal saline to prepare a liver homogenate, and then the MDA, reduced GSH and TG were detected. The detection method and the calculation method for the MDA and reduced GSH were described according to the instruction of a kit from NanJing JianCheng Bioengineering Institute, and the TG was detected by using the Beckman Coulter AU680 Chemistry Analyzer.

The test system of a further test is immune system of mice. The test is described as follows: Immunity enhancement function, overall determination. The conditions noted are these: any two of four aspects positive.
The subject of another test is aged mice. The test is described as follows: Oxidation resistance function experiment in aged mice. The conditions noted are these: x ± s, n = 13. From the text:
In the experiment, the oxidation resistance effect of the composition was researched by detecting four indicators of MDA, protein carbonyl, antioxidant enzyme activity (GSH-PX or SOD) and reduced GSH content. If three of the four indicators were positive, the composition could be determined to have the oxidation resistance effect.
Test animals were as follows: male SPF-grade Kunming mice aged over 10 months, with body weights of 40-60 g, available from Hubei Provincial Laboratory Animal Public Service Center, Hubei, China [certification No.: SCXK (E) 2020-0018].
The experimental method was as follows: 104 mice were randomly divided into 8 groups, namely, a negative control group and experimental groups 1-7 (i.e., the formula of the test samples adopted the formula of the above experimental groups 1-7), with 13 mice in each group.
Distilled water was given to the blank control group, corresponding test substances (the dose of acetylcysteine or cysteine agent in each test substance was 500 mg/kg BW) were given to each experimental group, and the intragastric capacity was 20 mL/kg BW. After 30 days of continuous intragastric administration, blood was sampled from the inner canthus of each group of animals, a hemolysate was prepared, and the MDA content and the glutathione peroxidase (GSH-PX) activity were detected; the animals were sacrificed and the livers were taken as homogenates, 10% liver homogenates were prepared for reduced GSH and protein carbonyl determination, and 1% liver homogenates were prepared for superoxide dismutase (SOD) activity determination. Each detection kit was available from NanJing JianCheng Bioengineering Institute.

The subject of test [2] is mouse peritoneal macrophages. Briefly: Phagocytosis of chicken erythrocytes by mouse peritoneal macrophages. The conditions noted are these: x ± s, n = 10. An excerpt: (§1) In the experiment, the effect of the composition on the immune system of mice was researched from four aspects of cellular immune function, humoral immune function, monocyte-macrophage function and NK cell activity.
(§2) Test animals were as follows: male SPF-grade Kunming mice aged 4 weeks, with body weights of 18-22 g, available from Hubei Provincial Laboratory Animal Public Service Center, Hubei, China [certification No.: SCXK (E) 2020-0018].
(§3) The experimental method was as follows: 400 mice were randomly divided into 5 groups, with 80 mice in each group, and each group was subjected to 5 kinds of immunoassays including body weight and organ/body ratio measurement, cellular immune function measurement, humoral immune function measurement, monocyte-macrophage function measurement, and NK cell activity measurement. For each immunoassay, 80 mice were tested and divided into 8 groups, namely a negative control group and experimental groups 1-7, with 10 mice in each group; distilled water was given to the negative control group, corresponding test substances (the dose of acetylcysteine or cysteine agent in each test substance was 500 mg/kg BW) were given to each experimental group, and the intragastric capacity was 20 mL/kg BW.

A further test relates to humoral immune function. Briefly: Humoral immune function: antibody-producing cells and serum hemolysin level. The settings on record: mice; 500 mg/kg BW intragastric; x ± s, n = 10.
Text: as §1, §2, §3

The subject of test [3] is alcoholic liver damage. Briefly: Liver protection function experiment: liver histopathology score (lipid droplets). The settings on record: alcoholic liver damage mice; score 0-4 points per field; x ± s, 13 mice.
Experimental: Distilled water was given to the blank control group and the model control group, corresponding test substances (the dose of acetylcysteine or cysteine agent in each test substance was 500 mg/kg BW) were given to each experimental group according to the formula, and the intragastric capacity was 20 mL/kg BW. On day 30 of the experiment, the mice of the model control group and each experimental group were intragastrically administered with 14 mL/kg BW of 50% ethanol once, and distilled water with equal volume was given to the blank control group, and then the mice were fasted for 16 hours. The mice were sacrificed by cervical dislocation after weighing. […]
The areas of the fields of view occupied by various lesions in each field of view were respectively recorded, and the total lesion scores of the observed fields of view were accumulated. […]
[4] abbreviates: alcoholic liver damage mice, 500 mg/kg BW acetylcysteine or cysteine intragastric, 30 days, x ± s, 13 mice.
[5] abbreviates: 10% liver homogenates of aged mice, 30 days.

As for `CC(=O)N[C@@H](CS)C(=O)O` [Experimental group 1, N-acetylcysteine], in the test with alcoholic liver damage [1] (Technical Specification for Inspection and Evaluation of Health Food (2003 edition)), the “Auxiliary protection effect on alcoholic liver damage (determination)” value is “had an auxiliary protection effect on alcoholic liver damage”. For the same compound, in the test on alcoholic liver damage [1] (setting [4]), the “MDA in liver homogenates” value is 0.98 ± 0.28^bc nmol/mgprot, the “Reduced GSH in liver homogenates” value was 34.55 ± 9.48^bc mg/gprot and the “TG in liver homogenates” value is listed as 1.52 ± 0.64^bc mmol/L. Further, the “Immunity enhancement effect (determination)” value in the test with immune system of mice is reported as “had the immunity enhancement effect”. Moreover, the SOD in the test on aged mice (1% liver homogenates of aged mice, 30 days) was 338.4 ± 44.9^bc U/mgprot. The MDA in the test with aged mice (2% hemolysates of aged mice, 500 mg/kg BW intragastric 30 days) was 17.88 ± 2.55^bc nmol/ml. Besides, in the test on aged mice (setting [5]), the GSH is 30.05 ± 6.08^a mg/gprot and the Protein carbonyl is reported as 1.33 ± 0.35^ab nmol/mgprot. Besides, the GSH-PX with aged mice (hemolysate of aged mice, 30 days) was 585.2 ± 24.2^a U/ml. In test [2], the “Phagocytic rate, phagocytosis of chicken erythrocytes” value is 33.88 ± 2.48^b %. Moreover, the “Number of hemolytic plaques (N)/number of whole splenocytes” value in the test on humoral immune function is on record as 161.71 ± 11.52^c. Further, the “Liver histopathology score (fatty degeneration of hepatocytes)” value in the test with alcoholic liver damage [3] is 1.46 ± 1.05^bc.
